The values that follow come from paper PMC13289949 (Biochemistry, 2025).

In experiment [1] the target is T1, MtbFDTS (Mycobacterium tuberculosis, UniProt P9WG57). Description: MtbFDTS oxidase reaction followed by NADPH consumption. It is filed as biochemical. The note with it: for increase in the rate of NADPH consumption: relative to control without ligand, >10× KACT, up to 250 μM ligand; for effect on the oxidase reaction (NADPH oxidation rate), in words: aerobic, no CH2H4folate, ligand up to 250 μM.
T1 sequence (P9WG57 whole entry): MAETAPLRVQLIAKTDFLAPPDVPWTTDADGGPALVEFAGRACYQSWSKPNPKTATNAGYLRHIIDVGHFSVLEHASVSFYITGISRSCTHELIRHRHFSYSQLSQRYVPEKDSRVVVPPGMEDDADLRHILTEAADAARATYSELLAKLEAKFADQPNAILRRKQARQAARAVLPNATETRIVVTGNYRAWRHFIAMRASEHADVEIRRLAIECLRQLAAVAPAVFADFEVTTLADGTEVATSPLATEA

Experiment [2] deals with T1, MtbFDTS. As to the kind of experiment: Hydrogen peroxide formation from MtbFDTS oxidase reaction. The format is biochemical. Particulars: NADPH and 100 μM plumbagin versus NADPH only.
For experiment [3], the target named is FAD-MtbFDTS complex (Mycobacterium tuberculosis, UniProt P9WG57). As to the kind of experiment: biochemical. The format is binding.
Sequence of FAD-MtbFDTS complex (P9WG57 whole entry, one chain of several): as the sequence (P9WG57 whole entry) above

Read-outs that look alike come from different tables or passages of the source.

Take “5-hydroxy-2,4-naphthoquinone [plumbagin]”: the “increase in the rate of NADPH consumption” value in experiment [1] was 5–10 fold. In addition, the “rate increase of hydrogen peroxide formation (initial velocity)” value in experiment [2] is listed as around 10 fold.

In the case of `Nc1nc(=O)c2c([nH]1)NCC(CNc1ccc(C(=O)N[C@@H](CCC(=O)O)C(=O)O)cc1)N2C=O` (mixture of isomers) [folinic acid], the “effect on the oxidase reaction (NADPH oxidation rate), in words” value (from here on “effect on the oxidase reaction”) in experiment [1] is “display inhibition”. In addition, the Kd in experiment [3] (read-out: apparent Kd, binding to the FAD-MtbFDTS complex) is 1300 ± 200 nM. Also, the “affinity of folinic acid for the dUMP-FAD-MtbFDTS ternary complex, in words” value in experiment [3] (saturating concentration of dUMP, compared with FAD-MtbFDTS) was “much higher affinity”.

With `O=c1[nH]c(=O)n([C@H]2C[C@H](O)[C@@H](COP(=O)(O)O)O2)cc1F` [5-FdUMP, 5-fluoro-deoxyuridylate], the “affinity to the FAD-MtbFDTS complex, in words” value in experiment [3] (compared with dUMP) is “less affinity”.

With `Cc1cn([C@H]2C[C@H](O)[C@@H](COP(=O)(O)O)O2)c(=O)[nH]c1=O` [dTMP, 2′-deoxythymidine-5′-monophosphate], the “effect on the oxidase reaction” value in experiment [1] is “activated”.

`O=c1ccn([C@H]2C[C@H](O)[C@@H](COP(=O)(O)O)O2)c(=O)[nH]1` [dUMP, 2′-deoxyuridine-5′-monophosphate]: in experiment [1], the “effect on the oxidase reaction” value is reported as “increase in rate”. The same compound displayed a Kd in experiment [3] of 1100 ± 500 nM.

For the compound `O=C1C=C(O)C(=O)c2ccccc21` [lawsone, 2-hydroxy-1,4-naphthoquinone], in experiment [1], the “increase in the rate of NADPH consumption” value was 5–10 fold.

Take `CN(Cc1cnc2nc(N)nc(N)c2n1)c1ccc(C(=O)N[C@@H](CCC(=O)O)C(=O)O)cc1` [methotrexate]: in experiment [1], the “effect on the oxidase reaction” value is “display inhibition”.
